Data taken from ChEMBL document CHEMBL1201862, “PubChem BioAssay data set” (2004).
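Values below derive from 48-hour exposures of cells grown in 96-well plates, with endpoints linearly interpolated between the two concentrations bracketing the appropriate inhibition level. GI50: concentration for 50% inhibition of growth.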 Calls of active or inactive are those of the source. Cut-off read from the data, not from the text of the source: active = GI50 up to about 1.1 µM and inactive = higher.

Legend:
Test in all cases: DTP human tumour cell line panel, 48 h
HCT-116 = test system: HCT-116
SF-539 = test system: SF-539
OVCAR-5 = test system: OVCAR-5
SNB-19 = test system: SNB-19
RPMI-8226 = test system: RPMI-8226
UO-31 = test system: UO-31
SF-295 = test system: SF-295
CCRF-CEM = test system: CCRF-CEM
KM12 = test system: KM12
COLO 205 = test system: COLO 205
EKVX = test system: EKVX
NCI-H460 = test system: NCI-H460
SK-MEL-5 = test system: SK-MEL-5
NCI/ADR-RES = test system: NCI/ADR-RES
K562 = test system: K562
U-251 = test system: U-251
OVCAR-8 = test system: OVCAR-8
SF-268 = test system: SF-268
SK-MEL-28 = test system: SK-MEL-28
HCT-15 = test system: HCT-15

Compound	GI50 (HCT-116)	GI50 (SF-539)	GI50 (OVCAR-5)	GI50 (SNB-19)	GI50 (RPMI-8226)	GI50 (UO-31)	GI50 (SF-295)	GI50 (CCRF-CEM)	GI50 (KM12)	GI50 (COLO 205)	GI50 (EKVX)	GI50 (NCI-H460)	GI50 (SK-MEL-5)	GI50 (NCI/ADR-RES)	GI50 (K562)	GI50 (U-251)	GI50 (OVCAR-8)	GI50 (SF-268)	GI50 (SK-MEL-28)	GI50 (HCT-15) [µM]
Brc1ccc2c(c1)[C@H]1CCc3c([nH]c4ccccc34)[C@H]1N2	8.49 µM (inactive)	2.36 µM (inactive)	11.7 µM (inactive)	13.7 µM (inactive)	4.39 µM (inactive)	11.4 µM (inactive)	11.6 µM (inactive)	3.91 µM (inactive)	5.31 µM (inactive)	11.5 µM (inactive)	10.8 µM (inactive)	12.4 µM (inactive)	3.13 µM (inactive)	14.2 µM (inactive)	4.85 µM (inactive)	10.1 µM (inactive)	13.3 µM (inactive)	15.1 µM (inactive)	14 µM (inactive)	
COC(=O)/C=C\n1ncc(=O)[nH]c1=O			> 100 µM (inactive)	> 100 µM (inactive)	> 100 µM (inactive)	> 100 µM (inactive)			> 10 µM (inactive)	> 100 µM (inactive)	> 100 µM (inactive)	> 100 µM (inactive)	> 100 µM (inactive)	> 100 µM (inactive)	> 100 µM (inactive)	> 100 µM (inactive)	> 100 µM (inactive)	> 100 µM (inactive)	> 100 µM (inactive)	> 100
C=C(C)C1Cc2c(c3ccccc3n(C)c2=O)O1 (stereo unspecified)		> 100 µM (inactive)		> 100 µM (inactive)	> 100 µM (inactive)	> 100 µM (inactive)	> 100 µM (inactive)	> 100 µM (inactive)		> 100 µM (inactive)	> 100 µM (inactive)	> 100 µM (inactive)	> 100 µM (inactive)		> 100 µM (inactive)	> 100 µM (inactive)	> 100 µM (inactive)	> 100 µM (inactive)	> 100 µM (inactive)	> 100
CC(=O)Nc1ccc(Sc2nnc(NC(C)=O)s2)cc1	> 100 µM (inactive)	> 100 µM (inactive)	> 100 µM (inactive)	> 100 µM (inactive)	> 100 µM (inactive)	> 100 µM (inactive)	> 100 µM (inactive)	> 100 µM (inactive)	> 100 µM (inactive)	> 100 µM (inactive)	> 100 µM (inactive)	> 100 µM (inactive)	> 100 µM (inactive)	> 100 µM (inactive)	> 100 µM (inactive)	> 100 µM (inactive)	> 100 µM (inactive)	> 100 µM (inactive)	> 100 µM (inactive)	> 100
CN(C)CCCNC(=O)N/N=C\c1cccc2ccccc12	> 10 µM (inactive)	> 10 µM (inactive)	> 10 µM (inactive)		> 10 µM (inactive)	4.45 µM (inactive)	> 10 µM (inactive)	> 10 µM (inactive)	> 10 µM (inactive)	> 10 µM (inactive)	> 10 µM (inactive)	> 10 µM (inactive)	> 10 µM (inactive)	> 10 µM (inactive)	> 10 µM (inactive)		> 10 µM (inactive)	> 10 µM (inactive)	> 10 µM (inactive)	> 10
CN(CCO)/N=N/c1[nH]cnc1C(N)=O	49.5 µM (inactive)	> 100 µM (inactive)	> 100 µM (inactive)	> 100 µM (inactive)	> 100 µM (inactive)		77.8 µM (inactive)	21.5 µM (inactive)	> 100 µM (inactive)	> 100 µM (inactive)	> 100 µM (inactive)	> 100 µM (inactive)	> 100 µM (inactive)			> 100 µM (inactive)	45.7 µM (inactive)	84.1 µM (inactive)	> 100 µM (inactive)	> 100
CN(C)CCNC(=O)c1cccc2c(=O)c3ccccc3oc12	13.7 µM (inactive)	53.3 µM (inactive)	24.3 µM (inactive)	36.9 µM (inactive)	29.2 µM (inactive)	18.1 µM (inactive)	30.3 µM (inactive)	35.4 µM (inactive)	35.4 µM (inactive)	13.1 µM (inactive)	> 66.1 µM (inactive)	28.2 µM (inactive)	25.2 µM (inactive)	27.6 µM (inactive)	40.8 µM (inactive)	44.4 µM (inactive)	27.7 µM (inactive)	45.2 µM (inactive)	33.7 µM (inactive)	37.4
COc1cc(C2c3cc4c(cc3[C@@H](Nc3ccccc3)C3COC(=O)[C@H]23)OCO4)cc(OC)c1O (stereo partly specified)	0.391 µM (active)	0.322 µM (active)	1.86 µM (inactive)	0.34 µM (active)	0.234 µM (active)	0.531 µM (active)	0.171 µM (active)	0.0279 µM (active)	1.47 µM (inactive)	1.92 µM (inactive)	1.96 µM (inactive)	< 0.01 µM (active)	0.787 µM (active)	2.07 µM (inactive)	0.931 µM (active)	0.391 µM (active)	1.18 µM (inactive)	1.04 µM (active)	2.72 µM (inactive)	0.417
